How the values were obtained:
Canis familiaris [1] = assay: No. of cases tested was measured on ouabain induced ventricular arrhythmia at 5 mg/kg, iv in dogs; 0/2; assay type: functional, Canis lupus familiaris, Cardiac ventricle
Mus musculus [2] = species: Mus musculus; assay: Inhibition of chloroform induced ventricular arrhythmia; assay type: functional, Cardiac ventricle
[3] = molecular target: T1, Muscarinic acetylcholine receptor (Rattus norvegicus) (UniProt P08482+P08483+P08485+P08911+P10980); assay: Inhibitory effect on muscarinic acetylcholine receptor binding affinity at a concentration of (10e -5)M; assay type: protein assay
[4] = molecular target: T1, Muscarinic acetylcholine receptor (Rattus norvegicus); assay: Inhibitory effect on muscarinic acetylcholine receptor binding affinity at a concentration of (10e -6)M; assay type: protein assay
Canis familiaris [5] = assay: No. of cases tested was measured on ouabain induced ventricular arrhythmia at 5 mg/kg, iv in dogs; 1/7; assay type: functional, Canis lupus familiaris, Cardiac ventricle
Canis familiaris [6] = assay: Antiarrhythmic activity in ouabain-induced ventricular arrhythmia in dog at compound concentration of 10 mg/kg; assay type: functional, Canis lupus familiaris, Heart
Canis familiaris [7] = assay: No. of cases tested was measured on ouabain induced ventricular arrhythmia at 5 mg/kg, iv in dogs; 1/4; assay type: functional, Canis lupus familiaris, Cardiac ventricle
Canis familiaris [8] = assay: No. of cases tested was measured on ouabain induced ventricular arrhythmia at dose (10mg/Kg, iv); 0/2; assay type: functional, Canis lupus familiaris, Cardiac ventricle
Canis familiaris [9] = assay: No. of cases tested was measured on ouabain induced ventricular arrhythmia at 5 mg/kg, iv in dogs; 1/3; assay type: functional, Canis lupus familiaris, Cardiac ventricle
Canis familiaris [10] = assay: No. of cases tested was measured on ouabain induced ventricular arrhythmia at 5 mg/kg, iv in dogs; 0/1; assay type: functional, Canis lupus familiaris, Cardiac ventricle
[11] = Ratio of ED100 (Dose po required to double the prodrug pupil size in mice) to that of ED50 (50% inhibition of chloroform induced ventricular arrhythmia in mice); assay type: functional
Canis familiaris [12] = assay: No. of cases tested was measured on ouabain induced ventricular arrhythmia at 5 mg/kg, iv in dogs; 2/2; assay type: functional, Canis lupus familiaris, Cardiac ventricle
Canis familiaris [13] = assay: No. of cases tested was measured on ouabain induced ventricular arrhythmia at 5 mg/kg, iv in dogs; 0/4; assay type: functional, Canis lupus familiaris, Cardiac ventricle
Canis familiaris [14] = assay: No. of cases tested was measured on ouabain induced ventricular arrhythmia at 5 mg/kg, iv in dogs; 2/3; assay type: functional, Canis lupus familiaris, Cardiac ventricle
Canis familiaris [15] = assay: No. of cases tested was measured on ouabain induced ventricular arrhythmia at 5 mg/kg, iv in dogs; 3/3; assay type: functional, Canis lupus familiaris, Cardiac ventricle
Canis familiaris [16] = assay: No. of cases tested was measured on ouabain induced ventricular arrhythmia at 5 mg/kg, iv in dogs; 6/6; assay type: functional, Canis lupus familiaris, Cardiac ventricle
Mus musculus [17] = assay: Dose (po) required to double the prodrug pupil size; assay type: functional
Canis familiaris [18] = assay: No. of cases tested was measured on ouabain induced ventricular arrhythmia at dose 10mg/Kg, iv; 0/3; assay type: functional, Canis lupus familiaris, Cardiac ventricle
Canis familiaris [19] = assay: No. of cases tested was measured on ouabain induced ventricular arrhythmia at 5 mg/kg, iv in dogs; 0/3; assay type: functional, Canis lupus familiaris, Cardiac ventricle
Canis familiaris [20] = assay: No. of cases tested was measured on ouabain induced ventricular arrhythmia at 5 mg/kg, iv in dogs; 3/6; assay type: functional, Canis lupus familiaris, Cardiac ventricle
Mus musculus [21] = species: Mus musculus; assay: Compound was evaluated by measuring the 50% inhibition of chloroform induced ventricular arrhythmia in mice; assay type: functional; conditions: Cardiac ventricle
[22] = Mus musculus, Cardiac ventricle, read-out: ED50

Row | SMILES | No. positive cases/tested (Canis familiaris [1]) | ED50 (Mus musculus [2]; [22]) | inhibition [3] | inhibition [4] | other results
1 | COc1ccc2c(c1)C(NCCN(C(C)C)C(C)C)c1cccnc1CO2 (configuration not stated) | 0 | > 100 mg/kg | 17% | 4% | –
2 | CCN(CC)CCNC1c2cc(C)ccc2OCc2ncccc21 (configuration not stated) | – | > 100 mg/kg | – | – | –
3 | CCN(CC)CCNC1c2cc(O)ccc2OCc2ncccc21 (configuration not stated) | – | > 100 mg/kg | -1% | 0% | No. positive cases/tested (Canis familiaris [5]): 1
4 | COc1ccc2c(c1)C(NCCN1CCOCC1)c1cccnc1CO2 (configuration not stated) | 0 | > 100 mg/kg | 0% | 0% | –
5 | CCN(CC)CCNC1c2cc(OC)ccc2OCc2ncccc21 (racemic) | – | – | – | – | Inhibition (Canis familiaris [6]): 76%
6 | CCN(CC)CC/C=C1/c2cc(OC)ccc2OCc2ncccc21 | – | 14 mg/kg | 26% | 5% | No. positive cases/tested (Canis familiaris [7]): 1
7 | CCN(CC)CCNC1c2cc(N(C)C)ccc2OCc2ncccc21 (configuration not stated) | – | > 100 mg/kg | 19% | 4% | No. positive cases/tested (Canis familiaris [8]): 0
8 | CCN(CC)CCNC1c2cc(OC)c(OC)cc2OCc2ncccc21 (configuration not stated) | 0 | > 100 mg/kg | 2% | 7% | –
9 | CCN(CC)CCNC1c2cc(OC)ccc2OCc2ncccc21 (configuration not stated) [listing 1 of 2 here] | – | – | 8% | -3% | –
10 | CCN(CC)CCCNC1c2cc(OC)ccc2OCc2ncccc21 (configuration not stated) | – | 50 mg/kg | 24% | 4% | No. positive cases/tested (Canis familiaris [9]): 1
11 | COc1ccc2c(c1)C(NCCN1[C@@H](C)CC[C@@H]1C)c1cccnc1CO2 (some centres not stated) | – | 100 mg/kg | 6% | -2% | No. positive cases/tested (Canis familiaris [10]): 0
12 | CCN1CCCC1CNC1c2cc(OC)ccc2OCc2ncccc21 (stereo in doubt; 26) [listing 1 of 2 here] | 0 | – | – | – | ED50 (Mus musculus [2]): 61 mg/kg
13 | Cc1cccc(C)c1OCC(C)N (configuration not stated) [MEXILETINE] | – | 71 mg/kg | -3% | -1% | Ratio [11]: 1.7
14 | CCN(CC)CCNC1c2cccnc2COc2c(OC)cccc21 (configuration not stated) | 0 | > 100 mg/kg | 37% | 12% | –
15 | CCN(CC)CC/C=C1/c2ccccc2OCc2ncccc21 | – | > 17 mg/kg | 80% | 28% | No. positive cases/tested (Canis familiaris [12]): 2
16 | COc1ccc2c(c1)C(NCCCN(C)C)c1cccnc1CO2 (configuration not stated) | 0 | > 100 mg/kg | 5% | 1% | –
17 | CCN(CC)CC/C=C1\c2cc(OC)ccc2OCc2ncccc21 | – | > 100 mg/kg | 27% | 3% | No. positive cases/tested (Canis familiaris [13]): 0
18 | CCN(CC)CCNC1c2cc(OC)ccc2OCc2ncccc21 (single isomer, unassigned; (+)) | – | – | – | – | Inhibition (Canis familiaris [6]): 51%
19 | CCN(CC)CC/C=C1\c2ccccc2OCc2ncccc21 | – | 100 mg/kg | 45% | 6% | No. positive cases/tested (Canis familiaris [14]): 2
20 | CCN(CC)CCNC1c2cc(F)ccc2OCc2ncccc21 (configuration not stated) | 0 | > 100 mg/kg | – | – | –
21 | COc1ccc2c(c1)C(NCCCNC1CCCCC1)c1cccnc1CO2 (configuration not stated) | – | > 100 mg/kg | -1% | -1% | No. positive cases/tested (Canis familiaris [15]): 3

Row | SMILES | No. positive cases/tested (Canis familiaris [1]) | ED50 (Mus musculus [2]; [22]) | inhibition [3] | inhibition [4] | other results
22 | COc1ccc2c(c1)C(N1CCN(C)CC1)c1cccnc1CO2 (configuration not stated) | 0 | 81 mg/kg | 11% | 0% | –
23 | CC(C)N(CCC(C(N)=O)(c1ccccc1)c1ccccn1)C(C)C (configuration not stated) [DISOPYRAMIDE] | – | 35 mg/kg | 7% | -1% | No. positive cases/tested (Canis familiaris [16]): 6; ED100 (Mus musculus [17]): 20 mg/kg; Ratio [11]: 0.6
24 | COc1ccc2c(c1)C(NCCN1[C@H](C)CC[C@@H]1C)c1cccnc1CO2 (some centres not stated) | – | > 100 mg/kg | 15% | 3% | No. positive cases/tested (Canis familiaris [9]): 1
25 | COc1ccc2c(c1)C(NN1CCN(C)CC1)c1cccnc1CO2 (configuration not stated) | 0 | > 100 mg/kg | 7% | 2% | –
26 | COc1ccc2c(c1)C(NCCN)c1cccnc1CO2 (configuration not stated) | 0 | > 100 mg/kg | 5% | -1% | –
27 | CCN(CC)CCNC1c2cc(OC(C)C)ccc2OCc2ncccc21 (configuration not stated) | 0 | 53 mg/kg | 12% | 3% | –
28 | COc1ccc2c(c1)C(NCCN1C(C)CCCC1C)c1cccnc1CO2 (configuration not stated) | – | > 100 mg/kg | 11% | 2% | No. positive cases/tested (Canis familiaris [9]): 1
29 | CCN(CC)CCNC1c2ccccc2OCc2ncccc21 (configuration not stated) | – | 93 mg/kg | – | – | No. positive cases/tested (Canis familiaris [18]): 0
30 | CCN(CC)CCNC1c2cc(Cl)ccc2OCc2ncccc21 (configuration not stated) | – | > 100 mg/kg | – | – | –
31 | COc1ccc2c(c1)C(NCCN1CCCC1)c1cccnc1CO2 (configuration not stated) | – | > 100 mg/kg | 12% | 3% | No. positive cases/tested (Canis familiaris [19]): 0
32 | CCN(CC)CCSC1c2cc(OC)ccc2OCc2ncccc21 (configuration not stated) | – | 31 mg/kg | 20% | 1% | No. positive cases/tested (Canis familiaris [19]): 0
33 | CCNCCNC1c2cc(OC)ccc2OCc2ncccc21 (configuration not stated) | – | > 100 mg/kg | 1% | 2% | No. positive cases/tested (Canis familiaris [19]): 0
34 | CCN1CCCC1CNC1c2cc(OC)ccc2OCc2ncccc21 (stereo in doubt; 26) [listing 2 of 2 here] | – | – | 23% | 2% | –
35 | CCN(CC)CC(=O)NC1c2cc(OC)ccc2OCc2ncccc21 (configuration not stated) | 0 | > 100 mg/kg | 1% | -3% | –
36 | CCN(CC)CCNC1c2cc(OC)ccc2OCc2ncccc21 (single isomer, unassigned; (-)) | – | – | – | – | Inhibition (Canis familiaris [6]): 94%
37 | CCN(CC)CCNC1c2cc(OC)ccc2OCc2ncccc21 (configuration not stated) [listing 2 of 2 here] | – | – | – | – | No. positive cases/tested (Canis familiaris [20]): 3; ED100 (Mus musculus [17]): 194 mg/kg; ED50 (Mus musculus [21]): 62 mg/kg; Ratio [11]: 4
38 | CCN(CC)CCNC1c2ccc(OC)cc2OCc2ncccc21 (configuration not stated) | 0 | > 100 mg/kg | 7% | 14% | –
39 | CCN1CCCC1CNC1c2cc(OC)ccc2OCc2ncccc21 (stereo in doubt; 27) [listing 1 of 2 here] | – | – | 25% | 3% | –
40 | COc1ccc2c(c1)C(NCCN(C)C)c1cccnc1CO2 (configuration not stated) | 0 | > 100 mg/kg | 15% | 3% | –
41 | CCN1CCCC1CNC1c2cc(OC)ccc2OCc2ncccc21 (stereo in doubt; 27) [listing 2 of 2 here] | – | 58 mg/kg | – | – | No. positive cases/tested (Canis familiaris [9]): 1
